Measurements reported in patent US20260042731A1, “(2,4-DICHLOROPHENOXY)ACETIC ACID ANALOGS” (CORTEVA AGRISCIENCE LLC, priority 2022, published 2026).
Like-named read-outs stand apart in the source and are kept apart here.

Experiments:
[1] = system: Amaranthus rudis (AMATA), tall water hemp; experiment: Postemergence herbicide evaluation, growth of Amaranthus rudis (AMATA); format: in vivo; settings: Amaranthus tuberculatus, post-emergence, percent reduction in plant size relative to untreated control, read-out: Ave. AMATA; for pest or weed control at 280 g/ha: 280 g ae/ha; for pest or weed control at 560 g/ha: 560 g ae/ha
[2] = system: Ambrosia artemisiifolia (AMBEL), common ragweed; experiment: Postemergence herbicide evaluation, growth of Ambrosia artemisiifolia (AMBEL); format: in vivo; settings: Ambrosia artemisiifolia, post-emergence, percent reduction in plant size relative to untreated control, read-out: AVE. AMBEL; for pest or weed control at 280 g/ha: 280 g ae/ha; for pest or weed control at 560 g/ha: 560 g ae/ha
[3] = system: Abutilon theophrasti (ABUTH), velvetleaf; experiment: Postemergence herbicide evaluation, growth of Abutilon theophrasti (ABUTH); format: in vivo; settings: Abutilon theophrasti, post-emergence, percent reduction in plant size relative to untreated control, read-out: AVE. ABUTH; for pest or weed control at 280 g/ha: 280 g ae/ha; for pest or weed control at 560 g/ha: 560 g ae/ha
[4] = system: Chenopodium album (CHEAL), common lambsquarters; experiment: Postemergence herbicide evaluation, growth of Chenopodium album (CHEAL); format: in vivo; settings: Chenopodium album, post-emergence, percent reduction in plant size relative to untreated control, read-out: Ave. CHEAL; for pest or weed control at 280 g/ha: 280 g ae/ha; for pest or weed control at 560 g/ha: 560 g ae/ha
[5] = system: glyphosate resistant Conyza canadensis (L.) (ERICA), horseweed; experiment: Postemergence herbicide evaluation, growth of Conyza canadensis (ERICA); format: in vivo; settings: Erigeron canadensis, post-emergence, percent reduction in plant size relative to untreated control, read-out: Ave. ERICA; for pest or weed control at 280 g/ha: 280 g ae/ha; for pest or weed control at 560 g/ha: 560 g ae/ha
[6] = Volatility of compounds measured by thermogravimetric analysis (TGA); format: physicochemical
[7] = system: weeds (ABUTH, AMATA, AMBEL, CHEAL, ERICA); experiment: Postemergence herbicide evaluation, overall average % weed control across ABUTH, AMATA, AMBEL, CHEAL, ERICA; format: in vivo; settings: post-emergence, average over the five weeds, read-out: Overall Ave % Weed Control; for pest or weed control at 280 g/ha: 280 g ae/ha; for pest or weed control at 560 g/ha: 560 g ae/ha

SMILES | pest or weed control at 280 g/ha ([1]; 168 h, 7 DAA) | pest or weed control at 560 g/ha ([1]; 168 h, 7 DAA) | pest or weed control at 280 g/ha ([1]; 336 h, 14 DAA) | pest or weed control at 560 g/ha ([1]; 336 h, 14 DAA) | pest or weed control at 280 g/ha ([1]; 504 h, 21 DAA) | pest or weed control at 560 g/ha ([1]; 504 h, 21 DAA) | pest or weed control at 280 g/ha ([2]; 168 h, 7 DAA) | pest or weed control at 560 g/ha ([2]; 168 h, 7 DAA) | pest or weed control at 280 g/ha ([2]; 336 h, 14 DAA) | pest or weed control at 560 g/ha ([2]; 336 h, 14 DAA) | pest or weed control at 280 g/ha ([2]; 504 h, 21 DAA) | pest or weed control at 560 g/ha ([2]; 504 h, 21 DAA) | pest or weed control at 280 g/ha ([3]; 168 h, 7 DAA) | pest or weed control at 560 g/ha ([3]; 168 h, 7 DAA) | pest or weed control at 280 g/ha ([3]; 336 h, 14 DAA) | pest or weed control at 560 g/ha ([3]; 336 h, 14 DAA) | pest or weed control at 280 g/ha ([3]; 504 h, 21 DAA) | pest or weed control at 560 g/ha ([3]; 504 h, 21 DAA) | pest or weed control at 280 g/ha ([4]; 168 h, 7 DAA) | pest or weed control at 560 g/ha ([4]; 168 h, 7 DAA) | further results
CS/C(C)=N\OC(=O)COc1ccc(Cl)cc1Cl [Compound A10, Methyl N-2-(2,4-dichlorophenoxy)acetoxyethanimidothioate] | 80% | 78% | 80% | 73% | 78% | 83% | 70% | 75% | 85% | 92% | 100% | 96% | 83% | 88% | 90% | 92% | 98% | 94% | 65% | 70% | pest or weed control at 280 g/ha ([4]; 336 h, 14 DAA): 75%; pest or weed control at 560 g/ha ([4]; 336 h, 14 DAA): 83%; pest or weed control at 280 g/ha ([4]; 504 h, 21 DAA): 83%; pest or weed control at 560 g/ha ([4]; 504 h, 21 DAA): 53%; pest or weed control at 280 g/ha ([5]; 168 h, 7 DAA): 63%; pest or weed control at 560 g/ha ([5]; 168 h, 7 DAA): 68%; pest or weed control at 280 g/ha ([5]; 336 h, 14 DAA): 85%; pest or weed control at 560 g/ha ([5]; 336 h, 14 DAA): 83%; pest or weed control at 280 g/ha ([5]; 504 h, 21 DAA): 93%; pest or weed control at 560 g/ha ([5]; 504 h, 21 DAA): 94%; TGA Data (rate of weight loss, volatility) [6]: 0.6 µg/min; pest or weed control at 280 g/ha ([7]; 168 h, 7 DAA): 72%; pest or weed control at 560 g/ha ([7]; 168 h, 7 DAA): 76%; pest or weed control at 280 g/ha ([7]; 336 h, 14 DAA): 83%; pest or weed control at 560 g/ha ([7]; 336 h, 14 DAA): 84%; pest or weed control at 280 g/ha ([7]; 504 h, 21 DAA): 90%; pest or weed control at 560 g/ha ([7]; 504 h, 21 DAA): 84%
O=C(Cc1ccccc1)NOC(=O)COc1ccc(Cl)cc1Cl [Compound A13, N-(2-(2,4-dichlorophenoxy)acetoxy)-2-phenylacetamide] | 75% | 70% | 80% | 74% | 91% | 70% | 65% | 70% | 85% | 94% | 90% | 97% | 68% | 80% | 70% | 85% | 75% | 93% | 68% | 65% | pest or weed control at 280 g/ha ([4]; 336 h, 14 DAA): 68%; pest or weed control at 560 g/ha ([4]; 336 h, 14 DAA): 78%; pest or weed control at 280 g/ha ([4]; 504 h, 21 DAA): 73%; pest or weed control at 560 g/ha ([4]; 504 h, 21 DAA): 91%; pest or weed control at 280 g/ha ([5]; 168 h, 7 DAA): 60%; pest or weed control at 560 g/ha ([5]; 168 h, 7 DAA): 65%; pest or weed control at 280 g/ha ([5]; 336 h, 14 DAA): 78%; pest or weed control at 560 g/ha ([5]; 336 h, 14 DAA): 97%; pest or weed control at 280 g/ha ([5]; 504 h, 21 DAA): 83%; pest or weed control at 560 g/ha ([5]; 504 h, 21 DAA): 99%; TGA Data (rate of weight loss, volatility) [6]: 1.2 µg/min; pest or weed control at 280 g/ha ([7]; 168 h, 7 DAA): 67%; pest or weed control at 560 g/ha ([7]; 168 h, 7 DAA): 70%; pest or weed control at 280 g/ha ([7]; 336 h, 14 DAA): 76%; pest or weed control at 560 g/ha ([7]; 336 h, 14 DAA): 85%; pest or weed control at 280 g/ha ([7]; 504 h, 21 DAA): 82%; pest or weed control at 560 g/ha ([7]; 504 h, 21 DAA): 90%
Cc1cc(OC(=O)COc2ccc(Cl)cc2Cl)n(C)n1 [Compound E6, 1,3-Dimethyl-1H-pyrazol-5-yl 2-(2,4-dichlorophenoxy)acetate] | 70% | 75% | 82% | 80% | 70% | 77% | 65% | 73% | 80% | 88% | 93% | 96% | 83% | 83% | 88% | 93% | 96% | 94% | 63% | 70% | pest or weed control at 280 g/ha ([4]; 336 h, 14 DAA): 65%; pest or weed control at 560 g/ha ([4]; 336 h, 14 DAA): 85%; pest or weed control at 280 g/ha ([4]; 504 h, 21 DAA): 58%; pest or weed control at 560 g/ha ([4]; 504 h, 21 DAA): 90%; pest or weed control at 280 g/ha ([5]; 168 h, 7 DAA): 63%; pest or weed control at 560 g/ha ([5]; 168 h, 7 DAA): 65%; pest or weed control at 280 g/ha ([5]; 336 h, 14 DAA): 83%; pest or weed control at 560 g/ha ([5]; 336 h, 14 DAA): 83%; pest or weed control at 280 g/ha ([5]; 504 h, 21 DAA): 96%; pest or weed control at 560 g/ha ([5]; 504 h, 21 DAA): 95%; TGA Data (rate of weight loss, volatility) [6]: 1 µg/min; pest or weed control at 280 g/ha ([7]; 168 h, 7 DAA): 69%; pest or weed control at 560 g/ha ([7]; 168 h, 7 DAA): 73%; pest or weed control at 280 g/ha ([7]; 336 h, 14 DAA): 79%; pest or weed control at 560 g/ha ([7]; 336 h, 14 DAA): 86%; pest or weed control at 280 g/ha ([7]; 504 h, 21 DAA): 82%; pest or weed control at 560 g/ha ([7]; 504 h, 21 DAA): 90%
